Laboratory results published in patent US12090128B2, “Dispersible formulations of n-((r)-2,3-dihydroxypropoxy)-3,4-difluoro-2-(2-fluoro-4-iodo-phenylamino)-benazmide and uses thereof” (SpringWorks Therapeutics, Inc., priority 2021, dated 2024).

Test: Storage stability of crystalline Form IV by XRPD and/or DSC
Assay type: physicochemical
Procedure: FIG. 3A is an XRPD corresponding to essentially pure Form IV of N—((R)-2,3-dihydroxypropoxy)-3,4-difluoro-2-(2-fluoro-4-iodo-phenylamino)-benzamide after storage for 68 months after production at 25° C. and ≤65% relative humidity.
FIG. 3B is an XRPD corresponding to essentially pure Form IV of N—((R)-2,3-dihydroxypropoxy)-3,4-difluoro-2-(2-fluoro-4-iodo-phenylamino)-benzamide after storage for 140 months after production at 25° C. and ≤65% relative humidity.
In some aspects, the XRPD pattern is generated using a PANALYTICAL® X'Pert Pro diffractometer using Ni-filtered Cu Kα (45 kV/40 mA) radiation and a step size of 0.03° 2θ with a X′CELERATOR® Real Time Multi-Strip detector, configured (a) on the incidental beam side as follows: variable divergence slits (10 mm irradiated length), 0.04 rad Soller slits, fixed anti-scatter slit (0.50°), and 10 mm beam mask, and (b) on the diffracted beam side as follows: variable anti-scatter slit (10 mm observed length) and 0.04 rad Soller slit or a BRUKER® D8® ADVANCE™ system using Cu Kα (40 kV/40 mA) radiation and a step size of 0.03° 2θ with a LYNXEYE™ detector, configured (a) on the incidental beam side as follows: Goebel mirror, mirror exit slit (0.2 mm), 2.5° Soller slit, beam knife, and (b) on the diffracted beam side as follows: anti-scatter slit (8 mm) and 2.5° Soller slit; wherein samples are mounted flat on zero-background Si wafers. […]

- XRPD pattern and/or DSC profile after storage (storage for 68 months at standard warehouse conditions (15° C.-25° C. and ≤65% relative humidity), FIG. 3A): substantially unchanged
- XRPD pattern and/or DSC profile after storage (storage for ≥140 months at standard warehouse conditions (15° C.-25° C. and ≤65% relative humidity), FIG. 3B): substantially unchanged
SMILES: O=C(NOC[C@H](O)CO)c1ccc(F)c(F)c1Nc1ccc(I)cc1F [essentially pure Form IV, N—((R)-2,3-dihydroxypropoxy)-3,4-difluoro-2-(2-fluoro-4-iodo-phenylamino)-benzamide]
